# Test results published in patent US20120165306A1, “PYRAZINYLPYRIDINES USEFUL FOR THE TREATMENT OF PROLIFERATIVE DISEASES” (priority 2009, published 2012).
# Molecular target: Cdk9/cyclinT1 (Homo sapiens, UniProt P50750)
# Assay: Cdk9/cyclinT1 kinase assay (IMAP or Alpha Screen protocol)
# Chain of Cdk9/cyclinT1 (P50750 whole entry): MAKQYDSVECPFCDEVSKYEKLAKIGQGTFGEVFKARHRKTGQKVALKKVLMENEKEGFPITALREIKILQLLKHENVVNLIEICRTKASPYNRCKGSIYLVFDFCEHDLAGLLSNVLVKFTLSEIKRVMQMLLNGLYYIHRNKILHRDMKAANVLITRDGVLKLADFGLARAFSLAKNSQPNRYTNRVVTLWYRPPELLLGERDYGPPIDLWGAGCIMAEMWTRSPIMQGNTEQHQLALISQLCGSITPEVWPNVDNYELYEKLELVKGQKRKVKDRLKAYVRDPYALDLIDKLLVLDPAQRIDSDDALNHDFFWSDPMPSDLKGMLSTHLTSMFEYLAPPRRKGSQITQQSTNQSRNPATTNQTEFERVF
# Chain of Cdk9/cyclinT1 (O60563 whole entry partner): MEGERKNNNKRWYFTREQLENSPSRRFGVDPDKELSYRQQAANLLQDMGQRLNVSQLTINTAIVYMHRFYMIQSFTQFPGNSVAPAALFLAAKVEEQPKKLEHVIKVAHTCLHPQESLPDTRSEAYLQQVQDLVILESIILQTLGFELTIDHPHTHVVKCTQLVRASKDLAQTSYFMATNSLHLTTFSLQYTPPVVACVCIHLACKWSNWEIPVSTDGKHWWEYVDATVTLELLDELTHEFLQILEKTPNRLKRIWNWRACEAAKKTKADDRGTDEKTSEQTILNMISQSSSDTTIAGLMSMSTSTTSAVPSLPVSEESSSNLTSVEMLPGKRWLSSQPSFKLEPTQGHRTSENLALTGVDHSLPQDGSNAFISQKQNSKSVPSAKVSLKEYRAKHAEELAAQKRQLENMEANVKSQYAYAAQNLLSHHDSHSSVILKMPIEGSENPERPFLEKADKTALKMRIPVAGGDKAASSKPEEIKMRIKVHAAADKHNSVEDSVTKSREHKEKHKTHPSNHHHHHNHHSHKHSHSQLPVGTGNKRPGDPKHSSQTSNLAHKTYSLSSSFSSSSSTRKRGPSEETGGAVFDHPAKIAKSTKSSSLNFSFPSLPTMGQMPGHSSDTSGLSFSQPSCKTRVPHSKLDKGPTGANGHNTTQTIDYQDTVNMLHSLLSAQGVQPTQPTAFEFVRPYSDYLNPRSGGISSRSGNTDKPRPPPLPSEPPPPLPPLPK
row,Structure (SMILES),IC50 [µM]
1,"O=C(Nc1cc(-c2cnccn2)c(Cl)cn1)[C@@H]1CCCNC1 [Example 1, (R)-Piperidine-3-carboxylic acid (5-chloro-4-pyrazin-2-yl-pyridin-2-yl)-amide]",2.1
2,COCCN1CCC[C@@H](C(=O)Nc2cc(-c3cncc(NCC4CCOCC4)n3)c(Cl)cn2)C1 [Example 3],0.316
3,"CS(=O)(=O)N1CCC[C@@H](C(=O)Nc2cc(-c3cncc(NCC4CCOCC4)n3)c(Cl)cn2)C1 [Example 4, (R)-1-Methanesulfonyl-piperidine-3-carboxylic acid (5-chloro-4-{6-[(tetrahydro-pyran-4-ylmethyl)-amino]-pyrazin-2-yl}-pyridin-2-yl)-amide]",0.179
4,"O=C(Nc1cc(-c2cncc(NCc3cccc(OC(F)F)c3)n2)c(Cl)cn1)[C@@H]1CCCNC1 [Example 18, (R)-Piperidine-3-carboxylic acid {5-chloro-4-[6-(3-difluoromethoxy-benzylamino)-pyrazin-2-yl]-pyridin-2-yl}-amide]",< 0.008
5,"O=C(Nc1cc(-c2cncc(NCC3CCOCC3)n2)c(Cl)cn1)C1CCCC1 [Example 13, Cyclopentanecarboxylic acid (5-chloro-4-{6-[(tetrahydro-pyran-4-ylmethyl)-amino]-pyrazin-2-yl}-pyridin-2-yl)-amide]",0.015
6,"O=C(Nc1cc(-c2cncc(NCC3CCOCC3)n2)c(Cl)cn1)C1CCCOC1 (stereo not drawn) [Example 23, Tetrahydro-pyran-3-carboxylic acid (5-chloro-4-{6-[(tetrahydro-pyran-4-ylmethyl)-amino]-pyrazin-2-yl}-pyridin-2-yl)-amide]",0.009
7,"CN(CC1CCOCC1)c1cncc(-c2cc(NC(=O)[C@@H]3CCCNC3)ncc2Cl)n1 [Example 30, (R)-Piperidine-3-carboxylic acid (5-chloro-4-{6-[methyl-(tetrahydro-pyran-4-ylmethyl)-amino]-pyrazin-2-yl}-pyridin-2-yl)-amide]",0.012
8,"O=C(Nc1cc(-c2cncc(NCC3CC3)n2)c(Cl)cn1)[C@@H]1CCCNC1 [Example 39, (R)-Piperidine-3-carboxylic acid {5-chloro-4-[6-(cyclopropylmethyl-amino)-pyrazin-2-yl]-pyridin-2-yl}-amide]",0.017
9,"N[C@@H]1CC[C@@H](C(=O)Nc2cc(-c3cncc(NCC4CCOCC4)n3)c(Cl)cn2)C1 [Example 44, (1R,3R)-3-Amino-cyclopentanecarboxylic acid (5-chloro-4-{6-[(tetrahydro-pyran-4-ylmethyl)-amino]-pyrazin-2-yl}-pyridin-2-yl)-amide]",< 0.008
10,"O=C(Nc1cc(-c2cncc(NCc3ccccc3F)n2)c(Cl)cn1)[C@@H]1CCCNC1 [Example 14, (R)-Piperidine-3-carboxylic acid {5-chloro-4-[6-(2-fluoro-benzylamino)-pyrazin-2-yl]-pyridin-2-yl}-amide]",< 0.008
11,"CCN1CCC[C@@H](C(=O)Nc2cc(-c3cncc(NCC4CCOCC4)n3)c(Cl)cn2)C1 [Example 7, (R)-1-Ethyl-piperidine-3-carboxylic acid (5-chloro-4-{6-[(tetrahydro-pyran-4-ylmethyl)-amino]-pyrazin-2-yl}-pyridin-2-yl)-amide]",0.229
12,"O=C(Nc1cc(-c2cncc(NCC3CCCOC3)n2)c(Cl)cn1)[C@@H]1CCCNC1 (stereo partly drawn) [Example 26, (R)-Piperidine-3-carboxylic acid (5-chloro-4-{6-[(tetrahydro-pyran-3-ylmethyl)-amino]-pyrazin-2-yl}-pyridin-2-yl)-amide]",< 0.008
13,"Cc1ncc(NCC2CCOCC2)nc1-c1cc(NC(=O)[C@@H]2CCCNC2)ncc1Cl [Example 24, (R)-Piperidine-3-carboxylic acid (5-chloro-4-{3-methyl-6-[(tetrahydro-pyran-4-ylmethyl)-amino]-pyrazin-2-yl}-pyridin-2-yl)-amide]",< 0.008
14,"O=C(Nc1cc(-c2cncc(NCC3CCOCC3)n2)c(Cl)cn1)[C@@H]1CCNC1 [Example 41, (R)-Pyrrolidine-3-carboxylic acid (5-chloro-4-{6-[(tetrahydro-pyran-4-ylmethyl)-amino]-pyrazin-2-yl}-pyridin-2-yl)-amide]",< 0.008
15,"O=C(Nc1cc(-c2cncc(NCC3CCOCC3)n2)c(Cl)cn1)[C@H]1CCCNC1 [Example 8, (S)-Piperidine-3-carboxylic acid (5-chloro-4-{6-[(tetrahydro-pyran-4-ylmethyl)-amino]-pyrazin-2-yl}-pyridin-2-yl)-amide]",0.028
16,"O=C(Nc1cc(-c2cncc(NCc3cncc(F)c3)n2)c(Cl)cn1)[C@@H]1CCCNC1 [Example 16, (R)-Piperidine-3-carboxylic acid (5-chloro-4-{6-[(5-fluoro-pyridin-3-ylmethyl)-amino]-pyrazin-2-yl}-pyridin-2-yl)-amide]",< 0.008
17,"O=C(Nc1cc(-c2cncc(Cl)n2)c(Cl)cn1)[C@@H]1CCCNC1 [Example 38, (R)-Piperidine-3-carboxylic acid [5-chloro-4-(6-chloro-pyrazin-2-yl)-pyridin-2-yl]-amide]",1.4
18,"O=C(Nc1cc(-c2cncc(NC[C@H]3CCCO3)n2)c(Cl)cn1)[C@@H]1CCCNC1 [Example 31, (R)-Piperidine-3-carboxylic acid [5-chloro-4-(6-{[(R)-1-(tetrahydro-furan-2-yl)methyl]-amino}-pyrazin-2-yl)-pyridin-2-yl]-amide]",0.019
19,"CC(=O)NCCNc1cncc(-c2cc(NC(=O)[C@@H]3CCCNC3)ncc2Cl)n1 [Example 19, (R)-Piperidine-3-carboxylic acid {4-[6-(2-acetylamino-ethylamino)-pyrazin-2-yl]-5-chloro-pyridin-2-yl}-amide]",0.153
20,"O=C(Nc1cc(-c2cncc(NCC3CCOCC3)n2)c(Cl)cn1)C1CNCCO1 (stereo not drawn) [Example 21, Morpholine-2-carboxylic acid (5-chloro-4-{6-[(tetrahydro-pyran-4-ylmethyl)-amino]-pyrazin-2-yl}-pyridin-2-yl)-amide]",0.0128
21,"O=C(Nc1cc(-c2cncc(NCc3cccnc3)n2)c(Cl)cn1)[C@@H]1CCCNC1 [Example 25, (R)-Piperidine-3-carboxylic acid (5-chloro-4-{6-[(pyridin-3-ylmethyl)-amino]-pyrazin-2-yl}-pyridin-2-yl)-amide]",0.012

# Next, values leading:
row,IC50 [µM],Structure (SMILES)
1,< 0.008,"COC(=O)N1CCC[C@H](C(=O)Nc2cc(-c3cncc(NCC4CCOCC4)n3)c(Cl)cn2)C1 [Example 49, (S)-3-(5-Chloro-4-{6-[(tetrahydro-pyran-4-ylmethyl)-amino]-pyrazin-2-yl}-pyridin-2-ylcarbamoyl)-piperidine-1-carboxylic acid methyl ester]"
2,0.1,"CCS(=O)(=O)N1CCC[C@H](C(=O)Nc2cc(-c3cncc(NCC4CCOCC4)n3)c(C(F)(F)F)cn2)C1 [Example 66, (S)-1-Ethanesulfonyl-piperidine-3-carboxylic acid (4-{6-[(tetrahydro-pyran-4-ylmethyl)-amino]-pyrazin-2-yl}-5-trifluoromethyl-pyridin-2-yl)-amide]"
3,0.13,"O=C(Nc1cc(-c2cncc(NCC3CCOCC3)n2)c(C(F)(F)F)cn1)[C@@H]1CCCNC1 [Example 61, (R)-Piperidine-3-carboxylic acid (4-{6-[(tetrahydro-pyran-4-ylmethyl)-amino]-pyrazin-2-yl}-5-trifluoromethyl-pyridin-2-yl)-amide]"
4,< 0.008,"COCC(=O)N1CCC[C@H](C(=O)Nc2cc(-c3cncc(NCC4CCOCC4)n3)c(Cl)cn2)C1 [Example 47, (S)-1-(2-Methoxy-acetyl)-piperidine-3-carboxylic acid (5-chloro-4-{6-[(tetrahydro-pyran-4-ylmethyl)-amino]-pyrazin-2-yl}-pyridin-2-yl)-amide]"
5,0.04,"N[C@H]1CC[C@@H](C(=O)Nc2cc(-c3cncc(NCC4CCOCC4)n3)c(C(F)(F)F)cn2)C1 [Example 62, (1R,3S)-3-Amino-cyclopentanecarboxylic acid (4-{6-[(tetrahydro-pyran-4-ylmethyl)-amino]-pyrazin-2-yl}-5-trifluoromethyl-pyridin-2-yl)-amide]"
6,< 0.008,"O=C(Cc1cccnc1)Nc1cc(-c2cncc(NCC3CCOCC3)n2)c(Cl)cn1 [Example 57, N-(5-Chloro-4-{6-[(tetrahydro-pyran-4-ylmethyl)-amino]-pyrazin-2-yl}-pyridin-2-yl)-2-pyridin-3-yl-acetamide]"
7,0.073,"Cc1cnc(NC(=O)C(C)C)cc1-c1cncc(NCC2CCOCC2)n1 [Example 60, N-(5-Methyl-4-{6-[(tetrahydro-pyran-4-ylmethyl)-amino]-pyrazin-2-yl}-pyridin-2-yl)-isobutyramide]"
8,0.047,"O=C(Nc1cc(-c2cncc(N[C@@H]3CC34CCOCC4)n2)c(Cl)cn1)[C@@H]1CCCNC1 [Example 63, (R)-Piperidine-3-carboxylic acid (5-chloro-4-{6-[(R)-(6-oxa-spiro[2.5]oct-1-yl)amino]-pyrazin-2-yl}-pyridin-2-yl)-amide]"
9,< 0.008,"CC(C)OC(=O)N1CCC[C@H](C(=O)Nc2cc(-c3cncc(NCC4CCOCC4)n3)c(Cl)cn2)C1 [Example 46, (S)-3-(5-Chloro-4-{6-[(tetrahydro-pyran-4-ylmethyl)-amino]-pyrazin-2-yl}-pyridin-2-ylcarbamoyl)-piperidine-1-carboxylic acid isopropyl ester]"
10,< 0.008,"CN1CC(C(=O)Nc2cc(-c3cncc(NCC4CCOCC4)n3)c(Cl)cn2)CC1=O (stereo not drawn) [Example 68, 1-Methyl-5-oxo-pyrrolidine-3-carboxylic acid (5-chloro-4-{6-[(tetrahydro-pyran-4-ylmethyl)-amino]-pyrazin-2-yl}-pyridin-2-yl)-amide]"
11,< 0.008,"CC(C)S(=O)(=O)N1CCC[C@H](C(=O)Nc2cc(-c3cncc(NCC4CCOCC4)n3)c(Cl)cn2)C1 [Example 56, (S)-1-(Propane-2-sulfonyl)-piperidine-3-carboxylic acid (5-chloro-4-{6-[(tetrahydro-pyran-4-ylmethyl)-amino]-pyrazin-2-yl}-pyridin-2-yl)-amide]"
12,< 0.008,"COC(=O)N[C@@H]1CC[C@H](C(=O)Nc2cc(-c3cncc(NCC4CCOCC4)n3)c(Cl)cn2)C1 [Example 53, [(1R,3S)-3-(5-Chloro-4-{6-[(tetrahydro-pyran-4-ylmethyl)-amino]-pyrazin-2-yl}-pyridin-2-ylcarbamoyl)-cyclopentyl]-carbamic acid methyl ester]"
